Assay results taken from article PMC6691786, “In vitro anticancer potentiality and molecular modelling study of novel amino acid derivatives based on N^1,N^3-bis-(1-hydrazinyl-1-oxopropan-2-yl) isophthalamide” (Journal of Enzyme Inhibition and Medicinal Chemistry, 2019).
Entries after “also recorded” stand apart in the source; their conditions may differ. One block for each molecule: values may come before it.

Key:
MCF-7 cell line = assay: MTT cytotoxicity assay, breast carcinoma; type: cell-based; conditions: Homo sapiens, MCF7; for inhibition at 100 µM: MCF-7, at 100 µM
Description: (§1) Human colon carcinoma (HCT-116 cell line), human lung carcinoma (A-549), human breast carcinoma (MCF-7 cell line) and human skin normal cell line (BJ-1) were obtained from Karolinska Center, Department of Oncology and Pathology, Karolinska Institute and Hospital, Stockholm, Sweden. IC50 values were performed using SPSS computer program (SPSS for windows, statistical analysis software package/version 9/1989 SPSS Inc., Chicago, IL).
(§2) The procedure was done in laminar air flow cabinet bio safety class II level. Culturing and sub culturing were carried out according to Thabrew et al.[32]. Doxorubicin was used as a positive control. DMSO used as negative control. Cell Viability Assay was done according to Selim et al.[33] as described by Mosmann et al.[34]. The cells were seeded at concentration of 10 × 10^3 cells per well in case of MCF-7, 20 × 10^3 cells/well in case of HCT-116 cell lines using 96-well plates at 37 °C. After 48-h incubation, the medium was aspirated and 40 μl MTT salt (2.5 mg/ml) were added and further incubated for 4 h. About 200 μl 10% sodium dodecyl sulphate (SDS) was added. The absorbance was measured at 595 nm.

HCT-116 cell line = assay: MTT cytotoxicity assay, colon carcinoma; type: cell-based; conditions: Homo sapiens; for inhibition at 100 µM: HCT-116, at 100 µM; for IC50: HCT-116, MTT, 48-h incubation, read-out: IC50 (mean ± SD)
Description: as §1, §2

A-549 cell line = assay: MTT cytotoxicity assay, lung carcinoma; type: cell-based; conditions: Homo sapiens, A549; for inhibition at 100 µM: A-549, at 100 µM
Description: as §1, §2

EGFR = EGFR (Homo sapiens, UniProt P00533); assay: In vitro kinase inhibition ELISA assay; type: biochemical; conditions: read-out: IC50 (mean ± SD)
Description: The in vitro enzyme inhibition assessment for compound 5 was performed at confirmatory diagnostic unit, Vacsera, Egypt.

c-kit = c-kit (Homo sapiens, UniProt P10721); assay: In vitro kinase inhibition ELISA assay; type: biochemical; conditions: read-out: IC50 (mean ± SD)
Bax = Bax protein level ELISA in MCF-7 cells; type: cell-based, human; conditions: compound at IC50 for 24 h
Description: Bax protein levels were evaluated according to Onur et al.. Monoclonal antibody specific to Bax captured on the plate is added. After incubation, Strep avid in conjugated to Horseradish peroxidase (HRP) is added. The reaction is terminated by the addition of acid and optical density of the colour produced measured at 450 nm.

[1] = system: BJ-1 normal skin fibroblasts cell line; assay: MTT cytotoxicity on normal skin cell line; type: cell-based, human; conditions: BJ-1 normal skin cells, at 100 µM
Description: as §1, §2

BCL-2 = BCL-2 level ELISA in MCF-7 cells; type: cell-based, human; conditions: compound at IC50 for 24 h, compared to control
Description: BCL-2 in the samples and standards were estimated according to Barbareschi et al.. A biotin-conjugated antibody was added followed by streptavidin-HRP. The reaction is then terminated by addition of acid and absorbance was measured at 450 nm.

MCF-7 cells = assay: DNA fragmentation by DPA assay; type: cell-based, human
Description: DNA fragmentation of the cells was assayed, as previously described[40]^,[41]. Briefly, the cells were lysed with 20 mM EDTA, 0.5% (v/v) Triton X-100, and […] Tris (pH 8.0) for 15 min on ice. The cells were then centrifuged for 20 min, at 27,000×g, to separate intact chromatin from DNA fragments. The amount of DNA was measured by using a diphenylamine reagent. The optical density is measured at 600 nm.

VEGFR-2 = VEGFR-2 (Homo sapiens, UniProt P35968); assay: In vitro kinase inhibition ELISA assay; type: biochemical; conditions: VEGFR-2 kinase, read-out: IC50 (mean ± SD)
[2] = system: HCT-116, A-549 and MCF-7 cell lines; assay: Preliminary cytotoxicity screen on the three tumour cell lines (MTT); type: cell-based, human; conditions: for inhibition at 100 µM: Homo sapiens, range over HCT-116, A-549, MCF-7, read-out: % of inhibition towards the three tested cancer cell lines; for cytotoxic activity (in words, SAR): HCT-116, A-549, MCF-7, compared with related derivatives
Description: as §1, §2

p53 = p53 level ELISA in MCF-7 cells; type: cell-based, human; conditions: compound at IC50 for 24 h, compared to control
Description: Human p53 present in the sample or standard binds to antibodies adsorbed to the microwells. A biotin-conjugated is added. After incubation and dispense of unbound biotin-conjugated streptavidin HRP is added. The reaction is terminated by addition of acid and absorbance is measured at 450 nm[37].

tubulin beta (TUBb) = assay: ELISA kit for tubulin beta (TUBb) in MCF-7 cells; type: cell-based, human; conditions: in comparison with colchicine
Description: MCF-7 cells were inoculated at concentration 1.2–1.8 × 10,000 cells/well using DMEM (supplemented with 10% FBS and 1% penicillin–streptomycin). Tested compound added for 18–24 h before the enzyme assay for Tubulin. Avidin conjugated to HRP is added to each microplate well and incubated. […] Sulphuric acid solution added to terminate enzymatic reaction. Colour change is measured spectrophotometrically at a wavelength of 450 nm ± 10 nm[39].

CASP-7 = assay: Human caspase-7 (CASP-7) estimation ELISA in MCF-7 cells; type: cell-based
Description: The micro ELISA plate provided in this kit pre-coated with CASP7-specific antibody. A biotinylated CASP7 antibody and Avidin–HRP conjugate was added. Aspire the excess components. The substrate solution was added wells that contain CASP7, biotinylated detection antibody and Avidin–HRP conjugate will appear blue in colour. The colour turns yellow followed the addition of sulphuric acid solution. The optical density (OD) was measured at a wavelength of 450 nm ± 2 nm[38].

CDK-2 = CDK-2 (Homo sapiens, UniProt P24941); assay: In vitro kinase inhibition ELISA assay; type: biochemical; conditions: CDK-2 kinase, read-out: IC50 (mean ± SD)

Chain of VEGFR-2 (P35968 20-1356): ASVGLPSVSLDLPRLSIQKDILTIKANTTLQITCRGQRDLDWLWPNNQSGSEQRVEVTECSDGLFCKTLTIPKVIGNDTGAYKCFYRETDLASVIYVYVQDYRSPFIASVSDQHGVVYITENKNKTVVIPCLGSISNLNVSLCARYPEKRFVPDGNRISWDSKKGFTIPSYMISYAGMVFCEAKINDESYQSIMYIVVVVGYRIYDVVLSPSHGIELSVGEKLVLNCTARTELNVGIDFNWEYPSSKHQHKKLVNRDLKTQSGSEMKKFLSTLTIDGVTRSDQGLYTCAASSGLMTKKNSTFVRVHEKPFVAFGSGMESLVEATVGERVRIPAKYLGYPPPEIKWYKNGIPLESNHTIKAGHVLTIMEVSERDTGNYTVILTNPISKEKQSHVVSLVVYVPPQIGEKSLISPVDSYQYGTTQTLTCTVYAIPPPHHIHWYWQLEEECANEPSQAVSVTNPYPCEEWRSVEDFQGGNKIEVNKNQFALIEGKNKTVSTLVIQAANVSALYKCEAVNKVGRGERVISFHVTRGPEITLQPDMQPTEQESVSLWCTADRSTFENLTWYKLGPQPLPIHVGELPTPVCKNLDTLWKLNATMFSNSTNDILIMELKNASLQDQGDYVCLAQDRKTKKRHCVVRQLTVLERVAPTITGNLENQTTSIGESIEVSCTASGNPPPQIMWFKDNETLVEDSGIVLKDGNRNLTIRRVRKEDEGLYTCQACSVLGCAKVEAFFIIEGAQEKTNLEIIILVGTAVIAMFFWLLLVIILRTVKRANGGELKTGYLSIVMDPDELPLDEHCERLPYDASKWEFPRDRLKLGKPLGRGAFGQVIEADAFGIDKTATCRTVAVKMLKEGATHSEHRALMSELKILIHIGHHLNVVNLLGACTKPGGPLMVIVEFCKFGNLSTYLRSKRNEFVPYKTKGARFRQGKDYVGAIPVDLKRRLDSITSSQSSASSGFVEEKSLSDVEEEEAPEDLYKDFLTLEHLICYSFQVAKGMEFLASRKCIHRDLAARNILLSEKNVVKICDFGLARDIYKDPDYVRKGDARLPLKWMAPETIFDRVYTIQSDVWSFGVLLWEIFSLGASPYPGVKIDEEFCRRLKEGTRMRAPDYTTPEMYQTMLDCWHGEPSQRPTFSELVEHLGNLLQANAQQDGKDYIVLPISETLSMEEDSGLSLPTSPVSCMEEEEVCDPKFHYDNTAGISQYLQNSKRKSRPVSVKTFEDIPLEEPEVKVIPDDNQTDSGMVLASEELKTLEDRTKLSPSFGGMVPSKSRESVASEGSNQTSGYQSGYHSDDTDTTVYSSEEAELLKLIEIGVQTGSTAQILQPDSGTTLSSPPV
Chain of c-kit (P10721 26-976): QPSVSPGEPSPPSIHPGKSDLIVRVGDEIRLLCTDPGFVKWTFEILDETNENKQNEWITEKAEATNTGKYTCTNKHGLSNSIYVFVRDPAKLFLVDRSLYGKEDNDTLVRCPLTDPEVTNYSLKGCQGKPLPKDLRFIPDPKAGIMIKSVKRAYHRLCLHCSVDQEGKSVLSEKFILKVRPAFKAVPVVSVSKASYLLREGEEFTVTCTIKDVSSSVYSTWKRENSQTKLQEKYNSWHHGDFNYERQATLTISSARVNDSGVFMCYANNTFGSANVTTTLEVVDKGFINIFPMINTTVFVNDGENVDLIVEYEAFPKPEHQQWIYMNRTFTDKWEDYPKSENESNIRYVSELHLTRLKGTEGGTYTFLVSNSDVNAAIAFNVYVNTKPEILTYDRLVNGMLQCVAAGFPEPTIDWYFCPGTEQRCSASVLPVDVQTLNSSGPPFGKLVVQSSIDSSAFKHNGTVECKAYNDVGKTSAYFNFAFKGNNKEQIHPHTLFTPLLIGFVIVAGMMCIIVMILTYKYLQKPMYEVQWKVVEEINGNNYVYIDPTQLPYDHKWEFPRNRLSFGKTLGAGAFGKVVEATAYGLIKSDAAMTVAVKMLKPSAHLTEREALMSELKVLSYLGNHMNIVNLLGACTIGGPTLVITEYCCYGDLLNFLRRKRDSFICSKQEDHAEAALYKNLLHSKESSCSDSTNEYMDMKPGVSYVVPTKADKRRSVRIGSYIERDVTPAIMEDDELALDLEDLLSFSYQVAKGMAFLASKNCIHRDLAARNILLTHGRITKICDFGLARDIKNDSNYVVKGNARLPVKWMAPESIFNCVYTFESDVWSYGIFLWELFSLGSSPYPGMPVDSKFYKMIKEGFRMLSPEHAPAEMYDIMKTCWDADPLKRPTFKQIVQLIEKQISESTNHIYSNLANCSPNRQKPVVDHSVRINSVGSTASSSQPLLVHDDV
Chain of EGFR (P00533 25-1210): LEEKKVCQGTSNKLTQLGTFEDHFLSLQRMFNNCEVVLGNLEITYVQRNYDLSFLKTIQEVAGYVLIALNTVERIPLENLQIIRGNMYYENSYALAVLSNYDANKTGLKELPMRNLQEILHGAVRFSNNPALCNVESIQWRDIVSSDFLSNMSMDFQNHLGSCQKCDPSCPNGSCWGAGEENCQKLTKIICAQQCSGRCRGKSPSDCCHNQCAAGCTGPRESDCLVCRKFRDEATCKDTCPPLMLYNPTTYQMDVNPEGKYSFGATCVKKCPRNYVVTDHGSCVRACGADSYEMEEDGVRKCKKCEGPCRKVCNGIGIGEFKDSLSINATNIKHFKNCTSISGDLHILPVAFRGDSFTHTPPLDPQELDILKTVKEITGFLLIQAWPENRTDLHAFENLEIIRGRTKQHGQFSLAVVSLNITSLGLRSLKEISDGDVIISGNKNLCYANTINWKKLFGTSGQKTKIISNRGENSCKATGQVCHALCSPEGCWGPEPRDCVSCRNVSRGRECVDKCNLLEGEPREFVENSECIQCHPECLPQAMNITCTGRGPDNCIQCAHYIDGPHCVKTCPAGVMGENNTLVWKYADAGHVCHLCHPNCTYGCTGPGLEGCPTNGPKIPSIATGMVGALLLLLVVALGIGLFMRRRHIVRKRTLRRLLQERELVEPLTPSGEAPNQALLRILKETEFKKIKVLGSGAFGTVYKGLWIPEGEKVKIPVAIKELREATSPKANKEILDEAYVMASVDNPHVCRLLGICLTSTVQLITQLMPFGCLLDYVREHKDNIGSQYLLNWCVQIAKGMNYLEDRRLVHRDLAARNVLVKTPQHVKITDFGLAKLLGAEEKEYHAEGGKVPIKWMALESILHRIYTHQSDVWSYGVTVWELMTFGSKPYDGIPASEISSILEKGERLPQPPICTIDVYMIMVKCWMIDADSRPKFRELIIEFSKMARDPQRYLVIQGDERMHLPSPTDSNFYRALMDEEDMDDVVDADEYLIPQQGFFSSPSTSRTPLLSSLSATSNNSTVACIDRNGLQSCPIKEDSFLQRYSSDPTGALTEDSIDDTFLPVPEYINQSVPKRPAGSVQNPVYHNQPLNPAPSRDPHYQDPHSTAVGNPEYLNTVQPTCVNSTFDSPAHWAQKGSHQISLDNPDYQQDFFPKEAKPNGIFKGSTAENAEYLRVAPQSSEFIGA

melting point: 242 to 244 °C
Compound: COc1ccc(C2SCC(=O)N2NC(=O)C(C)NC(=O)c2cccc(C(=O)NC(C)C(=O)NN3C(=O)CSC3c3ccc(OC)cc3)c2)cc1 (centres unmarked)

melting point: 232 to 234 °C
Compound: CC(NC(=O)c1cccc(C(=O)NC(C)C(=O)NN)c1)C(=O)NN (centres unmarked) [Compound 4, N^1,N^3-bis-(1-hydrazinyl-1-oxopropan-2-yl) isophthalamide]
inhibition at 100 µM (MCF-7 cell line): 1.8%
inhibition at 100 µM (HCT-116 cell line): 2.3%
inhibition at 100 µM (A-549 cell line): 0.9%

IC50 (EGFR): 780 ± 1250 nM
IC50 (c-kit): 2850 ± 40 nM
IC50 (VEGFR-2): 3170 ± 1000 nM
melting point: 271 to 273 °C
IC50 (CDK-2): 6240 ± 1210 nM
Compound: CC(NC(=O)c1cccc(C(=O)NC(C)C(=O)N/N=C2/C(=O)Nc3ccccc32)c1)C(=O)N/N=C1\C(=O)Nc2ccccc21 (centres unmarked) [Compound 5, N^1-(1-oxo-1-(-2-(2-oxoindolin-3-ylidene) hydrazinyl)propan-2-yl)-N^3-(1-oxo-1-(-2-(2-oxoindolin-3-ylidene) hydrazinyl)propan-2-yl) isophthalamide]
Bax/BCL-2 ratio (Bax): significant elevation; also recorded: significantly elevated
Bax expression level (Bax; compared to control): significant up-expression
% inhibition (cytotoxicity on normal cells) [1]: 32.6%
BCL-2 expression level (BCL-2): down-expression
IC50 (HCT-116 cell line): 14 nM
% of DNA fragmentation (MCF-7 cells): remarkable % of DNA fragmentation
inhibition at 100 µM [2]: 72.5 to 98.3%
p53 expression level (p53): significant up-expression
effect on microtubule-polymer mass (tubulin polymerization, TubB) (tubulin beta (TUBb)): moderate effect
level of active CASP-7 (CASP-7): significant increase

melting point: 271 to 273 °C
Compound: CC(NC(=O)c1cccc(C(=O)NC(C)C(=O)NN=C2C(=O)Nc3ccc(Cl)cc32)c1)C(=O)NN=C1C(=O)Nc2ccc(Cl)cc21 (centres unmarked) [Compound 6, N^1-(1-(-2-(5-chloro-2-oxoindolin-3-ylidene)hydrazinyl)-1-oxopropan-2-yl)-N^3-(1-(-2-(5-chloro-2-oxoindolin-3-ylidene) hydrazinyl)-1-oxopropan-2-yl)isophthalamide]
inhibition at 100 µM (MCF-7 cell line): 19.6%
inhibition at 100 µM (HCT-116 cell line): 33.1%
inhibition at 100 µM (A-549 cell line): 48.4%

melting point: 132 to 134 °C
Compound: CC(NC(=O)c1cccc(C(=O)NC(C)c2n[nH]c(=S)o2)c1)c1n[nH]c(=S)o1 (centres unmarked) [Compound 7, N^1,N^3-bis (1-(5-thioxo-4,5-dihydro-1,3,4-oxadiazol-2-yl)ethyl) isophthalamide]
inhibition at 100 µM (MCF-7 cell line): 77.5%
inhibition at 100 µM [2]: 72.5 to 98.3%

Compound: CC(NC(=O)c1cccc(C(=O)NC(C)C(=O)NN=C[C@H](O)[C@@H](O)[C@H](O)CO)c1)C(=O)NN=C[C@H](O)[C@@H](O)[C@H](O)CO (stereo partly drawn) [Compound 8, N^1,N^3-bis (1-oxo-1-(-2-((2S, 3 R, 4 R)-2,3,4,5-tetrahydroxypentylidene) hydrazinyl)propan-2-yl) isophthalamide]
cytotoxic activity (in words, SAR) [2]: dramatic drop in the anticancer effect

Compound: CC(NC(=O)c1cccc(C(=O)NC(C)C(=O)NN=C[C@@H](O)[C@H](O)[C@H](O)CO)c1)C(=O)NN=C[C@@H](O)[C@H](O)[C@H](O)CO (stereo partly drawn) [Compound 9, N^1,N^3-bis (1-oxo-1-(-2-((2R, 3S, 4R)-2,3,4,5-tetrahydroxypentylidene) hydrazinyl)propan-2-yl) isophthalamide]
cytotoxic activity (in words, SAR) [2]: dramatic drop in the anticancer effect

melting point: 296 to 298 °C
Compound: CC(NC(=O)c1cccc(C(=O)NC(C)C(=O)NN=Cc2ccc(Cl)cc2)c1)C(=O)NN=Cc1ccc(Cl)cc1 (centres unmarked) [Compound 10, N^1,N^3-bis-(1-(-2-(4-chlorobenzylidene) hydrazinyl)-1-oxopropan-2-yl) isophthalamide]
cytotoxic activity (in words, SAR) [2]: variable and noticeable increase in the cytotoxic activity

melting point: 285 to 287 °C
Compound: CC(NC(=O)c1cccc(C(=O)NC(C)C(=O)NN=Cc2ccc(F)cc2)c1)C(=O)NN=Cc1ccc(F)cc1 (centres unmarked) [Compound 11, N^1,N^3-bis-(1-(-2-(4-fluorobenzylidene) hydrazinyl)-1-oxopropan-2-yl) isophthalamide]
cytotoxic activity (in words, SAR) [2]: variable and noticeable increase in the cytotoxic activity

melting point: 273 to 275 °C
Compound: COc1ccc(C=NNC(=O)C(C)NC(=O)c2cccc(C(=O)NC(C)C(=O)NN=Cc3ccc(OC)cc3)c2)cc1 (centres unmarked) [Compound 12, N^1,N^3-bis-(1-(-2-(4-methoxybenzylidene) hydrazinyl)-1-oxopropan-2-yl) isophthalamide]
IC50 (MCF-7 cell line; MCF-7, MTT, 48-h incubation, read-out: IC50 (mean ± SD)): 51 nM
cytotoxic activity (in words, SAR) [2]: variable and noticeable increase in the cytotoxic activity
inhibition at 100 µM [2]: 72.5 to 98.3%

melting point: 277 to 279 °C
Compound: COc1ccc(C=NNC(=O)C(C)NC(=O)c2cccc(C(=O)NC(C)C(=O)NN=Cc3ccc(OC)c(OC)c3)c2)cc1OC (centres unmarked) [Compound 13, N^1,N^3-bis-(1-(-2-(3,4-dimethoxybenzylidene) hydrazinyl)-1-oxopropan-2-yl) isophthalamide]
cytotoxic activity (in words, SAR) [2]: reduction in the activity

melting point: 218 to 220 °C
Compound: CC(NC(=O)c1cccc(C(=O)NC(C)C(=O)NN2C(=O)CSC2c2ccc(Cl)cc2)c1)C(=O)NN1C(=O)CSC1c1ccc(Cl)cc1 (centres unmarked) [Compound 14, N^1,N^3-bis-(1-(2-(4-chlorophenyl)-4-oxothiazolidin-3-ylamino)-1-oxopropan-2-yl) isophthalamide]
inhibition at 100 µM [2]: 72.5 to 98.3%
IC50 (A-549 cell line; A-549, MTT, read-out: IC50 (mean ± SD)): 41 nM

melting point: 168 to 170 °C
Compound: CC(NC(=O)c1cccc(C(=O)NC(C)C(=O)NN2C(=O)CSC2c2ccc(F)cc2)c1)C(=O)NN1C(=O)CSC1c1ccc(F)cc1 (centres unmarked) [Compound 15, N^1,N^3-bis-(1-(2-(4-fluorophenyl)-4-oxothiazolidin-3-ylamino)-1-oxopropan-2-yl) isophthalamide]

Compound: COc1cccc2c1C(=O)c1c(O)c3c(c(O)c1C2=O)C[C@@](O)(C(=O)CO)C[C@@H]3O[C@H]1C[C@H](N)[C@H](O)[C@H](C)O1 [Doxorubicin, reference compound]
IC50 (HCT-116 cell line): 65 nM
